Data: the supplement of paper PMC8617591

Assays:
[1] = system: Mycobacterium tuberculosis Erdman (autoluminescent); assay: total FIC50 (Loewe) at 50% inhibition, three-drug combination (log2); higher = more antagonistic
Protocol: (§1)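 DiaMOND equipotent three-drug combination dose responses (10 doses, 1.5- or 2-fold spacing, centred on IC90) against autoluminescent M. tuberculosis Erdman in 8 in vitro models. Read-out is OD600, or luminescence for the intracellular and dormancy models, normalised to untreated wells. Hill-fit Einf, AUC25 and GRinf are potency metrics; FIC50 and FIC90 are total Loewe fractional inhibitory concentrations as log2 (negative = synergy).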

[2] = system: Mycobacterium tuberculosis Erdman (autoluminescent); assay: AUC25, normalised area under dose response up to IC25 (three-drug combination) (fraction (0-1)); higher = more potent at low dose
Protocol: as §1

[3] = system: Mycobacterium tuberculosis Erdman (autoluminescent); assay: total FIC90 (Loewe) at 90% inhibition, three-drug combination (log2); higher = more antagonistic
Protocol: as §1

[4] = system: Mycobacterium tuberculosis Erdman (autoluminescent); assay: Einf, fitted maximum growth inhibition of three-drug combination (fraction); higher = stronger maximal inhibition
Protocol: as §1

[5] = system: Mycobacterium tuberculosis Erdman (autoluminescent); assay: GRinf, maximum normalised growth rate inhibition (three-drug combination) (unitless (-1 to 1)); higher = less effect (negative = killing)
Protocol: as §1

NNC(=O)c1ccncc1 [isoniazid] + CC(=O)NC[C@H]1CN(c2ccc(N3CCOCC3)c(F)c2)C(=O)O1 [linezolid] + CO[C@H]1/C=C/O[C@@]2(C)Oc3c(C)c(O)c4c(O)c(c(/C=N/N5CCN(C)CC5)c(O)c4c3C2=O)NC(=O)/C(C)=C\C=C\[C@H](C)[C@H](O)[C@@H](C)[C@@H](O)[C@@H](C)[C@H](OC(C)=O)[C@@H]1C [rifampicin]
Details	AUC25, [2]	Einf, [4]	GRinf, [5]	total FIC50, [1]	total FIC90, [3]
in vitro model: acidic pH 5.7, time point: constant (~7 days, model-specific)	0.073	0.841	-0.0845	0.571	–
in vitro model: acidic pH 5.7, time point: terminal (~4-5 doublings, model-specific)	0.0682	0.972	-0.116	0.505	0.335
in vitro model: intracellular J774, time point: constant = terminal	–	0.947	-0.188	–	-0.141

Details	AUC25, [2]	Einf, [4]	GRinf, [5]	total FIC50, [1]	total FIC90, [3]
in vitro model: butyrate, time point: constant (~7 days, model-specific)	0.0943	0.915	0.0298	0.353	0.315
in vitro model: butyrate, time point: terminal (~4-5 doublings, model-specific)	0.0727	0.958	0.0122	0.184	0.0301
in vitro model: cholesterol 0.05 mM, time point: constant (~7 days, model-specific)	0.139	0.691	-0.14	0.356	–
in vitro model: cholesterol 0.05 mM, time point: terminal (~4-5 doublings, model-specific)	0.135	0.916	-0.324	4.8	-0.269
in vitro model: cholesterol-high 0.2 mM, time point: constant (~7 days, model-specific)	0.11	0.956	-0.355	0.569	–
in vitro model: cholesterol-high 0.2 mM, time point: terminal (~4-5 doublings, model-specific)	0.0902	0.997	-0.919	0.831	0.809
in vitro model: dormancy (butyrate + nitrate, low O2), time point: constant (~7 days, model-specific)	0.0701	0.891	0.192	0.857	0.12
in vitro model: dormancy (butyrate + nitrate, low O2), time point: terminal (~4-5 doublings, model-specific)	0.036	0.978	-0.111	0.231	0.0283
in vitro model: standard 7H9 glycerol, time point: constant = terminal	0.0756	0.899	0.148	0.299	-0.589
in vitro model: valerate, time point: constant (~7 days, model-specific)	0.0594	0.862	0.0129	0.491	–
in vitro model: valerate, time point: terminal (~4-5 doublings, model-specific)	0.035	0.934	0.0126	0.502	0.221

NNC(=O)c1ccncc1 [isoniazid] + CC(=O)NC[C@H]1CN(c2ccc(N3CCOCC3)c(F)c2)C(=O)O1 [linezolid] + COc1c(N2C[C@@H]3CCCN[C@@H]3C2)c(F)cc2c(=O)c(C(=O)O)cn(C3CC3)c12 [moxifloxacin]
Details	AUC25, [2]	Einf, [4]	GRinf, [5]	total FIC50, [1]	total FIC90, [3]
in vitro model: acidic pH 5.7, time point: constant (~7 days, model-specific)	0.109	0.747	-0.275	0.122	–
in vitro model: acidic pH 5.7, time point: terminal (~4-5 doublings, model-specific)	0.0728	0.923	-0.258	1.49	0.715
in vitro model: intracellular J774, time point: constant = terminal	–	0.893	-0.0263	–	0.67

Details	AUC25, [2]	Einf, [4]	GRinf, [5]	total FIC50, [1]	total FIC90, [3]
in vitro model: butyrate, time point: constant (~7 days, model-specific)	0.086	0.917	0.00606	0.711	0.963
in vitro model: butyrate, time point: terminal (~4-5 doublings, model-specific)	0.0553	0.956	0.0163	0.753	0.721
in vitro model: cholesterol 0.05 mM, time point: constant (~7 days, model-specific)	0.149	0.654	-0.302	0.796	–
in vitro model: cholesterol 0.05 mM, time point: terminal (~4-5 doublings, model-specific)	0.15	0.909	-0.444	4.95	0.24
in vitro model: cholesterol-high 0.2 mM, time point: constant (~7 days, model-specific)	0.114	0.933	-0.214	0.427	1.53
in vitro model: cholesterol-high 0.2 mM, time point: terminal (~4-5 doublings, model-specific)	0.105	1	-0.842	0.413	0.848
in vitro model: dormancy (butyrate + nitrate, low O2), time point: constant (~7 days, model-specific)	0.0474	0.851	0.271	1.12	0.548
in vitro model: dormancy (butyrate + nitrate, low O2), time point: terminal (~4-5 doublings, model-specific)	0.0316	0.974	-0.0773	1	0.562
in vitro model: standard 7H9 glycerol, time point: constant = terminal	0.0712	0.97	-0.21	0.644	0.854
in vitro model: valerate, time point: constant (~7 days, model-specific)	0.104	0.888	-0.0253	0.337	–
in vitro model: valerate, time point: terminal (~4-5 doublings, model-specific)	0.0614	0.935	-0.00928	0.575	0.805

NNC(=O)c1ccncc1 [isoniazid] + CC(=O)NC[C@H]1CN(c2ccc(N3CCOCC3)c(F)c2)C(=O)O1 [linezolid] + NC(=O)c1cnccn1 [pyrazinamide]
Details	AUC25, [2]	Einf, [4]	GRinf, [5]	total FIC50, [1]	total FIC90, [3]
in vitro model: acidic pH 5.7, time point: constant (~7 days, model-specific)	0.11	0.842	-0.287	-1.93	–
in vitro model: acidic pH 5.7, time point: terminal (~4-5 doublings, model-specific)	0.0984	0.983	-0.282	-1.83	-1.21
in vitro model: intracellular J774, time point: constant = terminal	–	0.956	-0.246	–	0.444

Details	AUC25, [2]	Einf, [4]	GRinf, [5]	total FIC50, [1]	total FIC90, [3]
in vitro model: butyrate, time point: constant (~7 days, model-specific)	0.108	0.91	0.0266	-1.9	1.62
in vitro model: butyrate, time point: terminal (~4-5 doublings, model-specific)	0.08	0.955	0.0226	-1.67	-1.24
in vitro model: cholesterol 0.05 mM, time point: constant (~7 days, model-specific)	0.144	0.686	-0.218	–	–
in vitro model: cholesterol 0.05 mM, time point: terminal (~4-5 doublings, model-specific)	0.14	0.89	-0.273	4.08	–
in vitro model: cholesterol-high 0.2 mM, time point: constant (~7 days, model-specific)	0.0969	0.893	-0.233	0.365	–
in vitro model: cholesterol-high 0.2 mM, time point: terminal (~4-5 doublings, model-specific)	0.0817	1	-0.765	0.683	0.315
in vitro model: dormancy (butyrate + nitrate, low O2), time point: constant (~7 days, model-specific)	0.0523	0.9	0.189	-1.89	-2.36
in vitro model: dormancy (butyrate + nitrate, low O2), time point: terminal (~4-5 doublings, model-specific)	0.0408	0.987	-0.229	-1.99	-2.42
in vitro model: standard 7H9 glycerol, time point: constant = terminal	0.0756	0.939	-0.0363	-5.13	–
in vitro model: valerate, time point: constant (~7 days, model-specific)	0.0944	0.836	0.0599	-2.58	–
in vitro model: valerate, time point: terminal (~4-5 doublings, model-specific)	0.0892	0.927	0.0322	-2.64	-3
